Test results published in patent US20150080380A1, “Therapeutic Uses” (GLAXOSMITHKLINE INTELLECTUAL PROPERTY DEVELOPMENT LIMITED, priority 2012, published 2015).
Where two headings read alike, the source gives them in different places.

Legend:
[1] = system: MAG and MBP expression in OPCs; assay: Western blot of mature oligodendrocyte markers in differentiating OPCs; format: cell-based, rat; details: differentiating oligodendrocytes after treatment
Experimental: The antibodies used for immunoblot and immunocytochemistry experiments were rabbit anti-myelin basic protein (MBP, Millipore, Billerica, Mass.), mouse anti-myelin-associated glycoprotein (MAG, abcam, Cambridge, Mass.).
After treatments, OPCs were washed twice with ice-cold PBS and total cell lysates were harvested in RIPA lysis buffer (50 mM Tris-HCl, pH 7.5, 1 mM EDTA, 1 mM EGTA, 1 mM sodium orthovanadate, 50 mM sodium fluoride, 0.1% 2-mercaptoethanol, 1% triton X-100 and proteases inhibitor cocktail). The lysates were briefly sonicated and stored at −80° C. before Western analysis. The BCA Protein Assay Reagent (PIERCE, Thermo) was performed to determine protein concentration. 15 μg of total protein per sample was aliquoted, boiled for 5 min after being mixed with 2×SDS buffer (125 mM Tris-HCl, 4% SDS, 20% glycerol, 100 mM DTT) and separated by SDS-PAGE on Bis-Tris mini-gels (Invitrogen). Separated proteins were then transferred to nitrocellulose membranes and blocked in 5% milk/TBS-0.1% Tween for 1 h at room temperature. Membranes were then incubated in the presence of primary antibodies diluted in 5% milk/TBS-0.1% Tween overnight at 4° C. The following day, membranes were washed 3 times for 5 min with TBS-0.1% Tween and incubated for 1 h at room temperature in 5% milk/TBS-0.1%. […]

[2] = system: OPC differentiation; assay: Oligodendrocyte precursor cell (OPC) differentiation assay (MBP immunocytochemistry); format: cell-based, rat; details: for EC50: Rattus norvegicus, Oligodendrocyte precursor cell
Experimental: The effects of small-molecule inverse agonists and neutral antagonists of histamine receptor 3 (H3R) on OPC differentiation were determined using the following assay.
The enriched OPC were obtained from dissecting 2-d-old rat pups forebrain. The pups were anesthetized and decapitated. Then the skull was cut with microdissecting scissors and the cortex was taken out with Dumont forceps. The meninges were removed with fine tips. After repeated trituration of the cortex through cell strainer, cells were re-suspended with the culture media consisted of DMEM supplemented with 20% Fetal bovine serum (Invitrogen, Carlsbad, Calif.), glutamine (4 mM, (Invitrogen), and plated onto poly-D-lysine (PDL, […] for 1 h, Sigma, St. Louis, Mo.)-coated T75 flasks. The resulting cultures were fed with fresh culture media twice per week and almost all the neurons will die due to the high concentration of serum in one week. Then the mixed glial cells were subjected to a series shake-off procedure to obtain pure OPCs two weeks later. Specifically, the mixed glial cells were shaken initially for 1 hour at 100 rpm to remove microglia and shaken for 20-22 hours at 37° C. at 200 rpm to enrich OPCs. OPCs were collected by centrifugation at 1200 rpm for 5 min, re-suspended in basal chemically defined medium (BDM). BDM consisted of DMEM supplemented with N2 medium (100×, Invitrogen), glutamine (4 mM, Invitrogen), BSA (0.1 mg/ml, Sigma), hydrocortisone (20 nM, Sigma), selenium (30 nM, Sigma) and biotin (10 nM, Sigma). OPCs were plated on poly-ornithine (PO, 50 μg/ml for 1 hr, Sigma)-coated culture dishes and maintained in BDM supplemented with bFGF (10 ng/ml, Invitrogen) and PDGF (10 ng/ml, PeproTech, Rocky Hill, N.J.) before experimental manipulation. OPCs were 95% pure judged by A2B5+ staining.
To initiate OPC differentiation, OPCs were firstly treated with 0.05% Trypsin/EDTA, and seeded into PO-coated 384-mini well plate at a density of 2,000 to 5,000 cells/well. Each test compound was dissolved in DMSO at the concentration of 10 mM for the assay. Compounds at different concentrations (full dose curve, 0.3 nM-10 uM) were added into the OPC culture in duplicates with Echo machine (Thermo, Waltham, Mass.). OPCs were cultured in BDM supplemented with N-acetyl-L-cystenine (30 μM, Sigma) to differentiate into mature oligodendrocytes for 4 days. BDM comprise DMEM (Invitrogen), N2 (100×, Invitrogen), L-Glu (50×, Invitrogen), Sodium Pyruvate (100×, Invitrogen), BSA (0.1%, Sigma), Biotin (10 nM, Sigma), hydrocortisone (10 nM, Sigma). The resulting cultures were fixed with 4% polyformaldehyde (Sigma) and samples were blocked with the blocking buffer (Donkey Serum 3%, Sigma; Triton X-100 0.04%, Sigma). Then fixed cells were incubated in primary antibodies (anti-myelin basic protein, MBP antibody, 600× dilution in blocking buffer) overnight at 4° C., washed thoroughly with PBS and then incubated with Alexa 488-labeled secondary antibody (Molecular Probes, Invitrogen) for 2 h at R.T; then washed thoroughly with PBS and stained with Dapi (1 ug/ml, Sigma),
The full-plate immunocytochemistry staining was read by an automatic image-based analysis system-Cellomics (Thermo) and the raw data for each well was acquired as percentage of MBP+ population as follows: Pictures of eight fields per well were captured and analyzed quantitatively; the well data is the average of 8 fields. The intensity of anti-MBP staining in the cytosol was used as the criteria of positive objects. The threshold of positive objects was set based on the average intensity of the positive control well, for which triiodothyronine (15 nM) was used. Then the data was analyzed and presented as fold change of the number of the vehicle control well. Graphs were generated by softwares: Microsoft Excel and IDBS XL fits. The curve fitting was performed with software XL fits to derive EC50 of the positive compounds.
All data except FIG. 1 are given as mean±standard error of the mean (SEM). […]

Row | EC50 ([2]; five experiments (n=5), FIG. 3b, read-out: EC50, promotion of OPC differentiation) [nM] | EC50 ([2]; two experiments (n=2), FIG. 3a, read-out: EC50, promotion of OPC differentiation) [nM] | EC50 ([2]; 96 h, 0.3 nM-10 uM, 4 days, FIG. 1, read-out: EC50, promotion of OPC differentiation (MBP+ population)) [nM] | SMILES | expression levels of MAG and MBP (western blot) [1] | MBP-positive cells ([2]; at 3 uM, n=5, FIG. 3b)
1 | 159 ± 57 | 118 ± 49 |  | O=C1CCCN1c1ccc(Oc2ccc3c(c2)CCN(C2CCC2)CC3)nc1 [Example compound 1, 1-{6-[(3-cyclobutyl-2,3,4,5-tetrahydro-1H-3-benzazepin-7-yl)oxy]-3-pyridinyl}-2-pyrrolidinone] | increased expression levels | up to 1.8±0.1 folds of control
2 |  |  | 25 | c1cc2c(cc1-c1noc(CC3CCN(C4CCC4)CC3)n1)OCO2 [Example compound 2, 3-(benzo[d][1,3]dioxol-5-yl)-5-((1-cyclobutylpiperidin-4-yl)methyl)-1,2,4-oxadiazole] | significant increase | 
